Results on 13 compounds are retold here after patent publication US11504371B2, “Quinazolines compound, preparation method therefor and application thereof” (Beijing Normal University, priority 2017, dated 2022).

The subject of series [1] is human hepatoma cell line (HepG2). Put plainly: MTT assay, tumor cell proliferation inhibition, HepG2. The format is cell-based. As to conditions: 72 h, read-out: Tumor inhibition rate (IC50). The method, then: (§1) Cell lines to be tested: human hepatoma cell line (HepG2), human lung cancer cell line (A549), human prostate cancer cell line (DU145), human breast cancer cell line (MCF-7), human neuroblastoma cell line (SH-SY5Y), human gastric mucosal cell line (Ges-1) and human embryonic lung fibroblast cell line (CCC-HPF-1) (the cells to be tested were purchased from the Cancer Hospital of Chinese Academy of Medical Sciences).
(§2) The cells in logarithmic growth phase were treated to prepare a single cell suspension, with the cell density adjusted, which was seeded in a 96-well cell culture plate. About 2×10^3 cells were contained in 100 μL per well, and cultured in a cell incubator at 37° C., 5% CO2, and saturated humidity for 24 h. The used medium was aspirated and abandoned, and then 100 μL of the target compound in different concentrations (0.1 μM-100 μM) were added for drug treatment. Five duplicate wells were prepared for each concentration. The background blank well, negative control well and positive control well were also prepared. All the wells were placed in a cell culture incubator at 37° C., 5% CO2, saturated humidity for another 72 h. Then, each well was added with 10 μL of MTT solution (5 mg/mL) and incubated for another 4 h. After that, each well was added with 100 μL of 10% SDS-0.1% NH4Cl (10% SDS purchased from Beijing Mengyimei Biotechnology Co., Ltd.) solution, and incubated at 37° C. for 10 h in the dark. Then, the absorbance OD was measured at 570 nm using a microplate reader at a reference wavelength of 650 nm. Cell proliferation inhibition was calculated according to the following formula: % inhibition=(ODcontrol−ODtreat)(ODcontrol−ODblank)×100. […] Each group was performed at least three times in parallel.

Series [2] has as its system human lung cancer cell line (A549). Put plainly: MTT assay, tumor cell proliferation inhibition, A549. The format is cell-based. As to conditions: A549, MTT, 72 h, read-out: Tumor inhibition rate (IC50). The method, then:
as §1, §2

The subject of series [3] is human prostate cancer cell line (DU145). Briefly: MTT assay, tumor cell proliferation inhibition, DU145. The following applies: for IC50: DU145, MTT, 72 h, read-out: Tumor inhibition rate (IC50). The format is cell-based. The method, then: as §1, §2
(In general: Tetrazolium dyes change colour on reduction, which living cells bring about.)

Series [4] concerns human breast cancer cell line (MCF-7). Put plainly: MTT assay, tumor cell proliferation inhibition, MCF-7. As to conditions: MCF-7, MTT, 72 h, read-out: Tumor inhibition rate (IC50). Format: cell-based. The method, then:
as §1, §2

Series [5] has as its system human neuroblastoma cell line (SH-SY5Y). Briefly: MTT assay, tumor cell proliferation inhibition, SH-SY5Y. The format is cell-based. The following applies: SH-SY5Y, 72 h, read-out: Tumor inhibition rate (IC50). The method, then: as §1, §2
The subject of another series is DU145 cancer cells. Briefly: Nude mice bearing DU145 cancer cells. The following applies: for tumor growth: FIG. 3. The format is in vivo. The method, then:
(§3) In the present invention, the antitumor activity was evaluated by intraperitoneal injection to nude mice bearing different tumors, for compounds 3 (N-(4-((4-nitrophenyl)methoxy)phenyl)-6,7-(benzo-9-crown-3)-4-quinazolinamine) and 23 (compounds No. are shown in Table 1) (N-(3-((4-trifluoromethylphenyl)methoxy)phenyl)-6,7-(benzo-12-crown-4)-4-quinazolinamine) of formula (I).
Firstly, a tumor-bearing nude mouse model was established. 0.2-1 mL of cell suspension was inoculated subcutaneously into the left lower limb of nude mice, and the drug was administered when the tumor volume reached about 100 mm^3. Then, grouping and administration were performed; the nude mice (5 mice in each group) were randomly divided into several groups, such as ultra-pure water control group (blank), positive drug control group, and different dosage treatment groups. […] The nude mice were weighted every other day during the administration. Tumor volumes were measured and calculated. Then tumor growth curve, tumor inhibition curve (see FIGS. 1 and 3) and weight change curve (see FIGS. 2 and 4) were drawn. […]. Among those, docetaxel suffers from high cumulative neurotoxic toxicity and drug resistance although it has the best effect. Comparing to docetaxel, compound 23 has a much lower toxicity and drug resistance, and thus has a great development prospect. […]

In a further series the test system is A549 cancer cells. Briefly: Nude mice bearing A549 cancer cells. The format is in vivo. As to conditions: mouse, in vivo. The method, then:
as §3
Firstly, a tumor-bearing nude mouse model was established. 0.2-1 mL of cell suspension was inoculated subcutaneously into the left lower limb of nude mice, and the drug was administered when the tumor volume reached about 100 mm^3. Then, grouping and administration were performed; the nude mice (5 mice in each group) were randomly divided into several groups, such as ultra-pure water control group (blank), positive drug control group, and different dosage treatment groups. The nude mice in each group were administered continuously for 40 days. The nude mice were weighted every other day during the administration. Tumor volumes were measured and calculated. Then tumor growth curve, tumor inhibition curve (see FIGS. 1 and 3) and weight change curve (see FIGS. 2 and 4) were drawn. […]. Among those, docetaxel suffers from high cumulative neurotoxic toxicity and drug resistance although it has the best effect. Comparing to docetaxel, compound 23 has a much lower toxicity and drug resistance, and thus has a great development prospect. […]

In a further series the test system is HepG2 cancer cells. Put plainly: Nude mice bearing HepG2 cancer cells. As to conditions: for weight loss of nude mice (FIG. 6): 40 mg/Kg, single agent; for tumor growth (tumor volume, FIG. 5): nude mice bearing HepG2, single agent.

“Also recorded” adds a separate entry of the source. Read-outs that look alike come from different tables or passages of the source.

Procedure for HepG2 cancer cells: Firstly, a tumor-bearing nude mouse model was established. […] Then, grouping and administration were performed; the nude mice (5 mice in each group) were randomly divided into several groups, such as ultra-pure water control group (blank), positive drug control group, and different dosage treatment groups. The nude mice in each group were administered continuously for 40 days. The nude mice were weighted every other day during the administration. Tumor volumes were measured and calculated.

As usually defined, the IC50 is the point on the concentration scale where inhibition reaches its midpoint. The melting point is the temperature, or range, at which the solid turns liquid. On to `O=[N+]([O-])c1ccc(COc2ccccc2Nc2ncnc3cc4c(cc23)OCCOCCO4)cc1` [Compound 1, N-(2-((4-nitrophenyl)methoxy)phenyl)-6,7-(benzo-9-crown-3)-4-quinazolinamine], for which the melting point was 192 to 193 °C. Also, the IC50 in series [1] (Homo sapiens) came to 50.2 µM. Besides, in series [2] (Homo sapiens), the IC50 turned out to be 28.4 µM. Also, the IC50 in [3] (Homo sapiens, DU-145) is 85.6 µM. The IC50 in series [4] (Homo sapiens, MCF7) is more than 100 µM. In addition, the half-inhibitory concentration (IC50) in series [5] (Homo sapiens) is more than 100 µM.
For the compound `FC(F)(F)c1ccc(COc2cccc(Nc3ncnc4cc5c(cc34)OCCOCCOCCO5)c2)cc1` [Compound 23, N-(3-((4-trifluoromethylphenyl)methoxy)phenyl)-6,7-(benzo-12-crown-4)-4-quinazolinamine], the IC50 in series [1] (Homo sapiens) was found to be 34 µM; in series [2] (Homo sapiens), 24.9 µM; in [3] (Homo sapiens, DU-145), 2.76 µM; in series [4] (Homo sapiens, MCF7) it was 17.6 µM; in series [5] (Homo sapiens), 20 µM. Also, in [3] (MTT, summary of Table 1), the “inhibitory effect on DU145 (in words)” value is “strong specific inhibitory effect”. Also, the tumor growth entry in the series on DU145 cancer cells (80 mg/Kg) is reported as “no longer grown almost”; in the series on DU145 cancer cells (160 mg/Kg) it was “no longer grown almost; also recorded: completely inhibited”. Moreover, the “body weight compared with blank control” value in the series on DU145 cancer cells (80 mg/Kg, after treating for 50 days) is given as “even heavier than that of the blank control group”. Further, in the series on DU145 cancer cells (160 mg/kg, FIG. 4), the toxicity result was “no significant toxicity was observed”. The “toxicity / body weight of nude mice (FIG. 4)” value in the series with DU145 cancer cells (nude mice bearing DU145) is “very low”. Besides, the “antitumor effect (tumor volume, FIG. 3)” value in the series on DU145 cancer cells (nude mice bearing DU145, intraperitoneal injection, three doses) was “significant antitumor effect; also recorded: high inhibitory effect”.
In the case of `Fc1ccc(COc2cccc(Nc3ncnc4cc5c(cc34)OCCOCCOCCOCCO5)c2)cc1` [Compound 25, N-(3-((p-fluorophenyl)methoxy)phenyl)-6,7-(benzo-15-crown-5)-4-quinazolinamine], the IC50 in series [1] was 19 µM; in series [2] it was more than 100 µM; in series [3], more than 100 µM; in series [4], more than 100 µM; in series [5] it was 20 µM.
For `Fc1ccc(COc2ccc(Nc3ncnc4cc5c(cc34)OCCOCCOCCOCCO5)cc2)cc1` [Compound 26, N-(4-((p-fluorophenyl)methoxy)phenyl)-6,7-(benzo-15-crown-5)-4-quinazolinamine], the IC50 is 55.5 µM in series [1]; 43.9 µM in series [2]; more than 100 µM in [3]; more than 100 µM in series [4]; 39.3 µM in [5].
As to `c1ccc(COc2ccccc2Nc2ncnc3cc4c(cc23)OCCOCCOCCOCCO4)cc1` [Compound 27, N-(2-((phenyl)methoxy)phenyl)-6,7-(benzo-15-crown-5)-4-quinazolinamine], the IC50 was 29.2 µM in series [1]; 48.5 µM in series [2]; more than 100 µM in series [3]; more than 100 µM in series [4]; 24 µM in series [5].
As to `c1ccc(COc2cccc(Nc3ncnc4cc5c(cc34)OCCOCCOCCOCCO5)c2)cc1` [Compound 28, N-(3-((phenyl)methoxy)phenyl)-6,7-(benzo-15-crown-5)-4-quinazolinamine], the IC50 in [1] was 55.5 µM; in series [2] it was 43.9 µM; in series [3] it was more than 100 µM; in [4], more than 100 µM; in [5] it was 39.3 µM.
With `O=[N+]([O-])c1ccc(COc2ccccc2Nc2ncnc3cc4c(cc23)OCCOCCOCCOCCO4)cc1` [Compound 30, N-(2-((4-nitrophenyl)methoxy)phenyl)-6,7-(benzo-15-crown-5)-4-quinazolinamine], the IC50 was 48.1 µM in series [1]; more than 100 µM in series [2]; more than 100 µM in series [3]; more than 100 µM in series [4]; more than 100 µM in [5].
Turning to `O=[N+]([O-])c1ccc(COc2ccc(Nc3ncnc4cc5c(cc34)OCCOCCOCCOCCO5)cc2)cc1` [Compound 32, N-(4-((4-nitrophenyl)methoxy)phenyl)-6,7-(benzo-15-crown-5)-4-quinazolinamine], the IC50 in [1], in series [2], in series [3], in [4] and in series [5] was more than 100 µM each time.
With `FC(F)(F)c1ccc(COc2ccccc2Nc2ncnc3cc4c(cc23)OCCOCCOCCOCCO4)cc1` [Compound 33, N-(2-((4-trifluoromethylphenyl)methoxy)phenyl)-6,7-(benzo-15-crown-5)-4-quinazolinamine], the IC50 in series [1] is more than 100 µM; in series [2], 30.7 µM; in series [3], more than 100 µM; in series [4], 28.5 µM; in series [5], more than 100 µM.
Turning to `N#Cc1cc(Nc2ncnc3cc4c(cc23)OCCOCCO4)ccc1OCc1cccc(F)c1` [Compound 36, 2-(3-Fluoro-benzyloxy)-5-(7,8,10,11-tetrahydro-6,9,12-trioxa-1,3-diaza-cyclonona[b]naphthalen-4-ylamino)-benzonitrile], the melting point was in the range of 220 to 222 °C. Moreover, the IC50 in series [1] (Homo sapiens) is more than 100 µM. In series [2] (Homo sapiens), the IC50 turned out to be 3.52 µM. In addition, the IC50 in [3] (Homo sapiens, DU-145) turned out to be 0.31 µM. Moreover, the IC50 in [4] (Homo sapiens, MCF7) is more than 100 µM. The IC50 in series [5] (Homo sapiens) is more than 100 µM.
Take `COc1cc2ncnc(Nc3ccc(F)c(Cl)c3)c2cc1OCCCN1CCOCC1` [Gefitinib, reference compound]: in the series on A549 cancer cells, the “toxicity / body weight of nude mice (FIG. 2)” value was “increased”.
For the compound `CNC(=O)c1cc(Oc2ccc(NC(=O)Nc3ccc(Cl)c(C(F)(F)F)c3)c(F)c2)ccn1` [regorafenib], in the series on HepG2 cancer cells, the “weight loss of nude mice (FIG. 6)” value is recorded as “weight loss of nude mice is similar” and the “tumor growth (tumor volume, FIG. 5)” value is “can slow down the tumor growth with increasing drug dose”.
On to `CNC(=O)c1cc(Oc2ccc(NC(=O)Nc3ccc(Cl)c(C(F)(F)F)c3)cc2)ccn1` [sorafenib], for which, in the series on HepG2 cancer cells, the “weight loss of nude mice (FIG. 6)” value was “weight loss of nude mice is relatively slow” and the “tumor growth (tumor volume, FIG. 5)” value was “can slow down the tumor growth with increasing drug dose”.
